This is an account of results in patent publication US20130216614A1, “IMMUNOGENIC COMPOSITIONS AND METHODS FOR TREATING NUEROLOGIC DISORDERS” (Glaxosmithkline Biologicals S.A., priority 2010, published 2013).

The subject of one assay is APPSwe/PS1 mice. Nature of the assay: T-water maze. In kind it is in vivo, mouse. The following applies: for T maze reversal test compared with group 1 (PBS): 12x weekly; for spatial memory / behaviour in T water maze compared to non-treated mice: twelve weekly injections, CRX 20 μg i.p., 3D MPL 50 μg i.p., AS01B 1/10th human dose i.m. The protocol:
Five groups of APPSwe/PS1 mice have received one a week for a period of 12 weeks the following treatment: • Gr1: APPSwe/PS1+NaCl 0.9% n(=20), i.p. injections • Gr4: APPSwe/PS1+CRX527 (20 μg/mouse, 130 μl, n=10), i.p. injections • Gr5: APPSwe/PS1+CRX601 (20 μg/mouse, 130 μl, n=10), i.p. injections • Gr6: APPSwe/PS1+3D MPL (50 μg/mouse, 130 μl, n=10), i.p. injections • Gr8 APPSwe/PS1+AS15 • Gr9: APPSwe/PS1+AS01B ( 1/10th of human dose μg/kg, 50 μl, n=10), i.m. injections
Mice were tested during the “light on” phase of the day. Behavioral experimenter was blinded to the genetic and treatment status of animals. To assess hippocampal-dependent spatial learning and memory, mice were trained in the T-water maze task. In this paradigm, we evaluate the mouse's ability to remember the spatial location of submerged platform. The T-maze apparatus (length of stem, 64 cm; length of arms, 30 cm; width, 12 cm; height of walls, 16 cm) was made of clear fiberglass and filled with water (23±1° C.) at a height of 12 cm. A platform (11×11 cm) was placed at the end of the target arm and was submerged 1 cm below the surface. The acquisition phase allows to evaluate animals for left-right spatial learning. During the first two trials, platforms were placed on each arms of the maze to test the spontaneous turning preference of the mouse. After these two trials, the least chosen arm was reinforced by the escape platform. The mice were placed in the stem of the T-maze and choose to swim either left or right until they found the submerged platform and escape to it, to a maximum of 60 s. After reaching the platform, the mice remained on it for 20 s and then were immediately placed back in the maze. […] Repeated trials were presented on the same day up to a maximum of 48 trials. A rest period of at least 10-15 min intervened between each block of 10 trials. A mouse was considered to have learned the task when it made no errors in a block of five consecutive trials. The reversal learning phase was then conducted 48 h later.
During this phase, the same protocol was repeated, except that the mice were trained to find the escape platform on the opposite side to that on which they had learned on acquisition phase. The number of trials to reach the criterion (five of five correct choices made on consecutive trials) was measured as well as the latency to find the escape platform.
Further experiments were carried out using the following groups.

The next assay has as its system CD11b+ monocytes. Put plainly: Peripheral blood CD11b+ monocyte number by flow cytometry after single injection. In kind it is in vivo, C57BL/6 mice. The following applies: for CD11b+ monocyte number in peripheral blood: 24 hrs after single injection; for circulating monocytes in peripheral blood: intramuscular injection; for circulating monocytes in peripheral blood / total monocytes in the peripheral blood: 24 hrs, normal count 5%; for total monocytes in the peripheral blood: intraperitoneal route. The text has this:
Monocytes are the peripheral blood precursor cells of microglia (Rezaie, P., et al 1999. Microglia in the human fetal spinal cord—patterns of distribution, morphology and phenotype. Brain Res. Dev. Brain Res. 115:71-81: Mildner et al Nat Neurosci. 2007 December; 10(12):1544-53. Epub 2007 Nov. 18. PubMed PMID: 18026096.). During embryonic development, microglia populate the CNS from myeloid lineage precursors in the bone marrow and these cells are circulating in the peripheral blood before becoming macrophages in their infiltrating tissues, such as microglia are for the brain. Markers such as CD11b and Ly6C are immunologicals markers that are present on peripheral blood monocytes and persist when they are infiltrating the brain (Mildner et al., 2007 infra, Lebson L, et al Trafficking CD11b-positive blood cells deliver therapeutic genes to the brain ofamyloid-depositing transgenic mice. J Neurosci. 2010 Jul. 21; 30(29):9651-8. PubMed PMID: 20660248.). To investigate whether 3D MPL containing adjuvants and s are contributing to induce the number of monocytes in the peripheral blood, we have performed a single injection of those molecules and measure after 24 hrs (post injection) the CD11b+ monocytes number by a flow cytometry method (Mildner A, et al Microglia in the adult brain arise from Ly-6ChiCCR2+ monocytes only under defined host conditions. Nat Neurosci. 2007 December; 10(12):1544-53. Epub 2007 Nov. 18. PubMed PMID: 18026096). As described in FIG. 3, we are showing an increase of CD11b+ monocyte number having that phenotypic composition of markers :CD11b+, lineage cocktail negative (CD3-, B220-, NK1.1-,Ly6C-) after the injection of 3D MPL or AS15 or AS01B or CRX527 or CRX601. Comparing to a normal monocyte number count in the peripheral blood, which is 5% whereas the intramuscular (i.m.) injection of AS01B, and AS15 are showing an increase of the number of circulating monocytes to up to 20%. Moreover, the injection of 3D MPL or CRX601 or CRX601 using the intraperitoneal route is also showing a 22% of total monocytes in the peripheral blood.
Peripheral blood was drawn from C57BL/6 mice via cardiac puncture with lithium-heparin as anticoagulant, 24-Hour after injection of the TLR adjuvants. Red blood cell lysis was performed twice on pooled blood with Ammonium Chloride-based Buffer (Sigma, Steinheim, Germany) and cells were counted with the EasyCount™ System (Immunicon). After one washing step, 500,000 cells were incubated with Rat anti-Mouse CD16/CD32 (BD Fc Block™ by BD Biosciences) for 10 min. on ice and cells were further incubated for 30 min. with a combination of the following directly conjugated antibodies at their pre-determined optimal concentration as described by Mildner et al., 2007): PerCP labeled-Streptavidin, PE-Hamster anti-Mouse CD3, Rat anti-Mouse CD45R/B220, Rat anti-Mouse Ly-6G, Mouse anti-Mouse NK1.1 APC-conjugated Rat anti-Mouse CD11b, PE-Cy7-conjugated Hamster anti-Mouse CD11c, FITC-Rat Anti-Mouse Ly-6C (all from BD Biosciences) and Pacific Blue™ Rat anti-Mouse CD62L (BioLegend, San Diego, Calif.). Cells were finally washed three times and fixed for 15 min. with a 2% paraformaldehyde solution in PBS. Fluorescence minus one (FMO) controls were always included in the assays for fluorescent compensation setting.
Samples were acquired on a flow cytometer (BD FACSCanto II) and data analyzed with the FACSDiva software (BD Biosciences).
Monocytes were identified by their Side/Forward scatter properties and gated as CD3-/CD45R/B220-/Ly-6G-/NK1.1-(Lineage-)/CD11b+ cells. CD11b+ monocytes frequency was reported as a percentage of the total cells excluding debris.
24-Hour after injection of the TLR adjuvants, peripheral blood was drawn from C57BL/6 mice via cardiac puncture with lithium-heparin as anticoagulant. Red blood cell lysis was performed twice on pooled blood with Ammonium Chloride-based Buffer (Sigma, Steinheim, Germany) and cells were counted with the EasyCount™ System (Immunicon). […]

With “3-O-desacyl-4′-monophosphoryl lipid A [3D MPL]”, the “T maze reversal test compared with group 1 (PBS)” value in the assay with APPSwe/PS1 mice (group 9: intra peritoneal 50 ug per mouse) was “significantly improved”. In the assay on APPSwe/PS1 mice (group 10: i.m. 5 ug per mouse), the “T maze reversal test compared with group 1 (PBS)” value is reported as “significantly improved”. The “spatial memory / behaviour in T water maze compared to non-treated mice” value in the assay with APPSwe/PS1 mice is given as “spatial memory improvement”. The “spatial memory / behaviour in T water maze compared to non-treated mice” value in the assay on APPSwe/PS1 mice (listed as 3D-MPL) was “significant improvements”. Besides, the “CD11b+ monocyte in the peripheral blood” value in the assay on CD11b+ monocytes (5 μg dose i.m., 24 hours) is reported as “double increase”. In addition, the “peripheral blood monocyte count” value in the assay with CD11b+ monocytes (50 μg dose i.m., 24 hours) was “drop”. For the same compound, in the assay on CD11b+ monocytes, the “CD11b+ monocyte number in peripheral blood” value (“CD11b+ monocyte number” below) was “increase”, the “circulating monocytes in peripheral blood” value is listed as not above 13% and the “total monocytes in the peripheral blood” value stood at 22%.

Turning to `CCCCCCCCCCC[C@H](CC(=O)N[C@H]1[C@H](OC[C@H](NC(=O)C[C@@H](CCCCCCCCCCC)OC(=O)CCCCCCCCC)C(=O)O)O[C@H](CO)[C@@H](OP(=O)(O)O)[C@@H]1OC(=O)C[C@@H](CCCCCCCCCCC)OC(=O)CCCCCCCCC)OC(=O)CCCCCCCCC` [CRX527], the “spatial memory / behaviour in T water maze compared to non-treated mice” value is recorded as “spatial memory improvement” in the assay on APPSwe/PS1 mice and “significant improvements” with APPSwe/PS1 mice (listed as CRX 527). Besides, in the assay on CD11b+ monocytes, the “CD11b+ monocyte number” value is “increase”.

Turning to `CCCCCCCCCCC[C@H](CC(=O)N[C@H]1[C@H](OC[C@H](NC(=O)C[C@@H](CCCCCCCCCCC)OCCCCCCCCCC)C(=O)O)O[C@H](CO)[C@@H](OP(=O)(O)O)[C@@H]1OC(=O)C[C@@H](CCCCCCCCCCC)OCCCCCCCCCC)OCCCCCCCCCC` [CRX601], in the assay with APPSwe/PS1 mice (group 3: i.m. 2 ug per mouse), the “T maze reversal test compared with group 1 (PBS)” value is “significantly improved”. For the same compound, the “spatial memory / behaviour in T water maze compared to non-treated mice” value with APPSwe/PS1 mice is listed as “spatial memory improvement”. For the same compound, the “spatial memory / behaviour in T water maze compared to non-treated mice” value in the assay with APPSwe/PS1 mice (listed as CRX 601) is reported as “significant improvements”. Further, in the assay on CD11b+ monocytes (20 μg dose i.m.), the monocyte count effect entry is given as “down modulated”. In the assay with CD11b+ monocytes, the “CD11b+ monocyte number” value is “increase”, the “circulating monocytes in peripheral blood” value is “up to 12%” and the “total monocytes in the peripheral blood” value is reported as 22%. In addition, in the assay with CD11b+ monocytes (single i.m. injection, six doses 0.2 to 20 μg), the “amount enough to trigger an increase of the monocyte count” value is 1 µg.
